ChEMBL document CHEMBL4483862, “Open-source discovery of chemical leads for next-generation chemoprotective antimalarials” (2018)
pIC50: −log10 of the molar value.

Tested on: Plasmodium berghei
Assay: Luciferase/luciferin-expressing antifolate-resistant parasites were used to infect a culture of HepG2 cells that were pre-incubated with compounds. Infected hepatocytes emit light due to the luciferase reaction. Assay results are presented as the percent inhibition of light emission compared to control. […]
Format: functional
Settings: sporozoite; for IC90: read-out: LUCIFERASE INFECTION ASSAY - IC90
[1] = read-out: LUCIFERASE INFECTION ASSAY - IC50

| Compound | IC90 | other results |
| --- | --- | --- |
| CCNC(=O)C(C)Nc1ncnc2scc(-c3ccc(OC)cc3)c12 (stereo not given) | 9.59 µM | pIC50 (FFLUC_HILL_SLOPE 11.3, FFLUC_R_SQUARED 0.625, HEPG2TOX_HILL_SLOPE 3.17, HEPG2TOX_R_SQUARED 0.973, PBLUC_HILL_SLOPE 4.87, PBLUC_R_SQUARED 0.647, read-out: LUCIFERASE INFECTION ASSAY - IC50): 5.21 |
| O=C(Cn1ncc(Cl)c(Cl)c1=O)N1N=C(c2ccco2)CC1c1cccs1 (stereo not given) | > 10 µM | pIC50 (FFLUC_HILL_SLOPE 1.67, FFLUC_R_SQUARED 0.501, PBLUC_HILL_SLOPE 2.36, PBLUC_R_SQUARED 0.757, read-out: LUCIFERASE INFECTION ASSAY - IC50): 5.35 |
| CC1c2ccsc2CCN1C(=S)NC(=O)c1ccc(C(C)(C)C)cc1 (stereo not given) | > 8.86 µM | pIC50 (HEPG2TOX_HILL_SLOPE 0.0482, HEPG2TOX_R_SQUARED 0.0333, read-out: LUCIFERASE INFECTION ASSAY - IC50): < 5.05 |
| CCOC(=O)c1c(C)[nH]c(C(=O)COC(=O)c2[nH]nc3ccccc23)c1C | > 10 µM | pIC50 (HEPG2TOX_HILL_SLOPE 3.07, HEPG2TOX_R_SQUARED 0.979, PBLUC_HILL_SLOPE 5.58, PBLUC_R_SQUARED 0.622, read-out: LUCIFERASE INFECTION ASSAY - IC50): 5.06 |
| O=C(Nc1ccccc1)Nc1ccc2cc(C(=O)c3ccccc3O)cnc2c1 | 4.81 µM | pIC50 (PBLUC_HILL_SLOPE 1.23, 8.91, PBLUC_R_SQUARED 0.971, 0.189, read-out: LUCIFERASE INFECTION ASSAY - IC50): 5.45 |
| COc1cncc(-c2cnc3c(Nc4cc(OC)c(OC)c(OC)c4)nccn23)c1 | 0.297 µM | pIC50 (HEPG2TOX_HILL_SLOPE 0.708, HEPG2TOX_R_SQUARED 0.654, PBLUC_HILL_SLOPE 2.45, PBLUC_R_SQUARED 0.956, read-out: LUCIFERASE INFECTION ASSAY - IC50): 6.92 |
| CC1CCCC(C)N1C(=O)Nc1cccc(Cl)c1 (stereo not given) | > 12.4 µM | pIC50 [1]: < 4.91 |
| CCc1cccc2c(/C=C(/C(=O)NCc3ccccn3)c3nc4ccccc4[nH]3)c[nH]c12 | > 10 µM | pIC50 (PBLUC_HILL_SLOPE 0.583, PBLUC_R_SQUARED 0.274, read-out: LUCIFERASE INFECTION ASSAY - IC50): < 5.00 |
| Cc1nnsc1C(=O)Nc1nc(C(F)(F)F)c(-c2ccccc2)s1 | > 8.91 µM | pIC50 (HEPG2TOX_HILL_SLOPE 1.46, HEPG2TOX_R_SQUARED 0.922, PBLUC_HILL_SLOPE 11.5, PBLUC_R_SQUARED 0.414, read-out: LUCIFERASE INFECTION ASSAY - IC50): 5.10 |
| Cc1cc(=O)nc(N/N=C/c2cc(C)n(-c3ccccc3Cl)c2C)[nH]1 | > 10 µM | pIC50 (PBLUC_HILL_SLOPE 2.91, PBLUC_R_SQUARED 0.512, read-out: LUCIFERASE INFECTION ASSAY - IC50): 5.04 |
| CCN(CC)c1ccc(/C=C2\CCC(/C=N/NC(=O)NC3CCCCC3)=C2N2CCOCC2)cc1 | > 10 µM | pIC50 [1]: < 5.00 |
| COc1cc(OC)cc(-c2cn3c(-c4cccc(OC(F)(F)F)c4)cnc3cn2)c1 | > 7.94 µM | pIC50 (PBLUC_HILL_SLOPE 10.9, PBLUC_R_SQUARED 0.156, read-out: LUCIFERASE INFECTION ASSAY - IC50): < 5.10 |
| COc1ccc(C(=O)/C=C/c2cccc(C#N)c2)cc1CN1CCCC1 | > 10 µM | pIC50 (HEPG2TOX_HILL_SLOPE 11.5, HEPG2TOX_R_SQUARED 0.623, read-out: LUCIFERASE INFECTION ASSAY - IC50): < 5.00 |
| Cc1cccc(OCCCC(=O)Nc2cc(C)n[nH]2)c1 | 1.35 µM | pIC50 (HEPG2TOX_HILL_SLOPE 2.94, HEPG2TOX_R_SQUARED 0.896, PBLUC_HILL_SLOPE 6.3, PBLUC_R_SQUARED 0.571, read-out: LUCIFERASE INFECTION ASSAY - IC50): 6.02 |
| Cn1/c(=N/C(=O)c2ccc(=O)[nH]c2)sc2ccccc21 | > 10 µM | pIC50 (HEPG2TOX_HILL_SLOPE 1.38, HEPG2TOX_R_SQUARED 0.749, PBLUC_HILL_SLOPE 1.3, PBLUC_R_SQUARED 0.494, read-out: LUCIFERASE INFECTION ASSAY - IC50): 5.58 |
| O=C(Nc1ccc(Oc2ccccc2)cc1)c1csc(C(O)c2cccc(OC(F)(F)F)c2)n1 (stereo not given) | 5.15 µM | pIC50 (HEPG2TOX_HILL_SLOPE 1.57, HEPG2TOX_R_SQUARED 0.929, PBLUC_HILL_SLOPE 3.6, PBLUC_R_SQUARED 0.22, read-out: LUCIFERASE INFECTION ASSAY - IC50): 5.55 |
| Nc1nc(SCC(=O)NC2CCCc3ccccc32)nc2sccc12 (stereo not given) | > 10 µM | pIC50 (PBLUC_HILL_SLOPE 8.94, PBLUC_R_SQUARED 0.274, read-out: LUCIFERASE INFECTION ASSAY - IC50): 5.04 |
| CC(C)(C)c1ccc(-c2cc(NC(=O)c3ccc(Cl)cc3Cl)[nH]n2)cc1 | 3.08 µM | pIC50 (HEPG2TOX_HILL_SLOPE 2.82, HEPG2TOX_R_SQUARED 0.976, PBLUC_HILL_SLOPE 3.98, PBLUC_R_SQUARED 0.745, read-out: LUCIFERASE INFECTION ASSAY - IC50): 5.75 |
| Cc1oc2[nH]cnc(=O)c2c1C(=O)Nc1ccccc1Cc1ccccc1 | > 10 µM | pIC50 (FFLUC_HILL_SLOPE 0.892, FFLUC_R_SQUARED 0.572, PBLUC_HILL_SLOPE 0.52, PBLUC_R_SQUARED 0.732, read-out: LUCIFERASE INFECTION ASSAY - IC50): 5.56 |
| CNC(=O)NC(=O)C(C)N1CCN(CCc2cccs2)CC1 (stereo not given) | > 10 µM | pIC50 [1]: < 5.00 |

| Compound | IC90 | other results |
| --- | --- | --- |
| Cc1cc(CSc2ccccc2C(=O)NNC(=O)c2ccccc2O)on1 | > 10 µM | pIC50 (PBLUC_HILL_SLOPE 2.63, PBLUC_R_SQUARED 0.786, read-out: LUCIFERASE INFECTION ASSAY - IC50): 5.13 |
| O=C(NNC(=O)c1cnc2ccccn2c1=O)c1cc(Cl)ccc1O | 4.25 µM | pIC50 (HEPG2TOX_HILL_SLOPE 14.4, HEPG2TOX_R_SQUARED 0.595, PBLUC_HILL_SLOPE 11.5, PBLUC_R_SQUARED 0.377, read-out: LUCIFERASE INFECTION ASSAY - IC50): 5.45 |
| O=C(Nc1ccc(OC(F)(F)F)cc1)N1CCc2nc(NCc3cccc(Oc4ccccc4)c3)ncc2C1 | > 6.16 µM | pIC50 [1]: < 5.21 |
| O=C(Nc1ccccc1)c1ccc(CN2CCCC(C(F)(F)F)C2)cc1 (stereo not given) | 8.25 µM | pIC50 [1]: 5.66 |
| CNC(=S)N/N=C1\C(=O)Nc2ccc(C(C)C)cc21 | > 10 µM | pIC50 (FFLUC_HILL_SLOPE 0.391, FFLUC_R_SQUARED 0.18, PBLUC_HILL_SLOPE 8.53, PBLUC_R_SQUARED 0.15, read-out: LUCIFERASE INFECTION ASSAY - IC50): 5.06 |
| COCOc1ccc(-c2cc(-c3ccc(OC)c(OC)c3)cnc2N)cc1 | > 9.01 µM | pIC50 (PBLUC_HILL_SLOPE 4.72, PBLUC_R_SQUARED 0.371, read-out: LUCIFERASE INFECTION ASSAY - IC50): 5.14 |
| C=CCN(C(=O)c1[nH]c(C)c(C(C)=O)c1C)c1nc2c(s1)CCCC2 | 6.45 µM | pIC50 (PBLUC_HILL_SLOPE 0.713, PBLUC_R_SQUARED 0.94, read-out: LUCIFERASE INFECTION ASSAY - IC50): 6.53 |
| CC1Cc2ccccc2N1C(=O)c1cn(-c2ccccc2)nc1-c1ccc(F)cc1 (stereo not given) | 9.94 µM | pIC50 (HEPG2TOX_HILL_SLOPE 8.75, HEPG2TOX_R_SQUARED 0.907, PBLUC_HILL_SLOPE 3.93, PBLUC_R_SQUARED 0.478, read-out: LUCIFERASE INFECTION ASSAY - IC50): 5.25 |
| CC(C)c1nc(NCCCN2CCOCC2)c(C#N)c2c1CCCC2 | > 9.64 µM | pIC50 [1]: < 5.02 |
| CC(C)CCn1c(SCC(=O)N2CCc3ccccc3C2)nc2ccccc2c1=O | > 10 µM | pIC50 [1]: < 5.00 |
| CCNC(=O)NC(=O)C(Sc1nncn1-c1ccccc1OC)c1ccccc1 (stereo not given) | 9.43 µM | pIC50 (HEPG2TOX_HILL_SLOPE 2.69, HEPG2TOX_R_SQUARED 0.767, PBLUC_HILL_SLOPE 3.33, PBLUC_R_SQUARED 0.658, read-out: LUCIFERASE INFECTION ASSAY - IC50): 5.31 |
| O=C(NCCN1C(=O)S/C(=C\c2ccccc2Cl)C1=O)c1ccc(Br)o1 | > 10 µM | pIC50 [1]: < 5.00 |
| O=S(=O)(c1cc(C(F)(F)F)cc(C(F)(F)F)c1)N1CCC(C(c2ccccc2)c2ccccc2)CC1 | > 6.26 µM | pIC50 (FFLUC_HILL_SLOPE 21.5, FFLUC_R_SQUARED 0.833, read-out: LUCIFERASE INFECTION ASSAY - IC50): < 5.20 |
| Cc1nc(C(=O)N2CCc3c(c(C(=O)NC4CCCC4)nn3CC(C)C)C2)cs1 | 2.9 µM | pIC50 (PBLUC_HILL_SLOPE 2.42, PBLUC_R_SQUARED 0.681, read-out: LUCIFERASE INFECTION ASSAY - IC50): 5.93 |
| O=C1CC(c2ccccc2Cl)Cc2c1cnn2-c1nc2ccccc2[nH]1 (stereo not given) | 3.82 µM | pIC50 [1]: 5.49 |
| COc1ccc2c(-c3ccccc3)cc(SC(C)C(=O)N3CCNC3=O)nc2c1 (stereo not given) | 1.25 µM | pIC50 (FFLUC_HILL_SLOPE 2.47, FFLUC_R_SQUARED 0.615, PBLUC_HILL_SLOPE 18.2, PBLUC_R_SQUARED 0.514, read-out: LUCIFERASE INFECTION ASSAY - IC50): 5.95 |
| Cc1cccnc1NC(=O)c1ccc(Cl)c(S(=O)(=O)N(Cc2ccccc2)c2ccccc2)c1 | > 10 µM | pIC50 (PBLUC_HILL_SLOPE 2.12, PBLUC_R_SQUARED 0.451, read-out: LUCIFERASE INFECTION ASSAY - IC50): 5.24 |
| O=[N+]([O-])c1ccc(Oc2c(Cl)cc(S(=O)(=O)N3CCCCC3)cc2Cl)c(Cl)c1 | > 7.09 µM | pIC50 (PBLUC_HILL_SLOPE 7.39, PBLUC_R_SQUARED 0.0349, read-out: LUCIFERASE INFECTION ASSAY - IC50): < 5.15 |
| COCC(C)NC(=O)c1cccnc1-c1nc2ccccc2s1 (stereo not given) | > 10.1 µM | pIC50 [1]: < 5.00 |
| Cc1ccc(-c2csc3[nH]c(=S)n(Cc4ccccc4)c(=O)c23)cc1 | > 10 µM | pIC50 (HEPG2TOX_HILL_SLOPE 0.131, HEPG2TOX_R_SQUARED 0.154, PBLUC_HILL_SLOPE 0.317, PBLUC_R_SQUARED 0.176, read-out: LUCIFERASE INFECTION ASSAY - IC50): 5.12 |
